The values that follow come from BindingDB's records for doi:10.1016/j.bmcl.2006.12.084 (Gsk, 2007).

The test has as its target Free fatty acid receptor 1 (Homo sapiens, UniProt O14842). Put plainly: 96-Well Adherent Reporter Cell Assay. As to the method: The reporter assay for the stable hGPR40-Gal4-Elk1/5xGal4-luc+-expressing CHO cells was first carried out in the serum-free medium in the presence of test ligand for 5h. The medium was then removed and replaced with 1:1 mixture of LucPlusTM (PerkinElmer Life Sciences) and Dulbecco phosphate buffered saline containing 1 mM CaCl2 and 1 mM MgCl2. Plates were incubated in the dark at room temperature for 10 min before luciferase activity was determined using a TopCountTM microplate scintillation counter (PerkinElmer Life Sciences) at a count time of 3 s/well.

Free fatty acid receptor 1, sequence (O14842 whole entry, the tested form may be a part): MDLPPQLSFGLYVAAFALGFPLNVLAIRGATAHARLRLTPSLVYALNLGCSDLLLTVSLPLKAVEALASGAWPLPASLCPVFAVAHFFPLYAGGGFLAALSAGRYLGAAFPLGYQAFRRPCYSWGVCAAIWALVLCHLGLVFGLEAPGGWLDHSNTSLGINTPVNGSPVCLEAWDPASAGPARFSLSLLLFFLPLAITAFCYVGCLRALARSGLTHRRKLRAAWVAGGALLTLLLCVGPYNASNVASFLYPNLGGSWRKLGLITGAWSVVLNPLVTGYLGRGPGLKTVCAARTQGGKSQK

In turn, `CC(C(=O)O)c1ccc(NCc2ccc(-c3ccccc3)cc2)cc1` (configuration not stated) [2-(4-{[(4-phenylphenyl)methyl]amino}phenyl)propanoic acid] had a 50% effective concentration (EC50) (22 °C) above 31.6 µM.

For `NC(=O)c1cccc(CNc2ccc(CCC(=O)O)cc2)c1` [3-(4-{[(3-carbamoylphenyl)methyl]amino}phenyl)propanoic acid], the EC50 (25 °C) was above 31.6 µM.

Compound `CS(=O)(=O)Nc1cccc(CNc2ccc(CCC(=O)O)cc2)c1` [3-(4-{[(3-methanesulfonamidophenyl)methyl]amino}phenyl)propanoic acid] displayed an EC50 (25 °C) above 31.6 µM.

`N#Cc1ccc(CNc2ccc(CCC(=O)O)cc2)cc1` [3-(4-{[(4-cyanophenyl)methyl]amino}phenyl)propanoic acid] came in with an EC50 (25 °C) above 31.6 µM.

For `O=C(O)CCc1ccc(NCc2ccc(O)cc2)cc1` [3-(4-{[(4-hydroxyphenyl)methyl]amino}phenyl)propanoic acid], the concentration for a half-maximal effect (EC50) (25 °C) is above 31.6 µM.

For the compound `O=C(O)CCc1ccc(NCc2ccc(Cl)s2)cc1` [3-(4-{[(5-chlorothiophen-2-yl)methyl]amino}phenyl)propanoic acid], under “22 °C”, the half-maximal effective concentration (EC50) is 2 µM.

For `O=C(O)CCc1ccc(NCc2ccc(C(F)(F)F)cc2)cc1` [3-[4-({[4-(trifluoromethyl)phenyl]methyl}amino)phenyl]propanoic acid], a half-maximal response (22 °C) (EC50) required 2 µM. In other words, the single-digit micromolar range.

For the compound `O=C(O)CCc1ccc(NCc2ncc[nH]2)cc1` [3-{4-[(1H-imidazol-2-ylmethyl)amino]phenyl}propanoic acid], for the setting “25 °C”, the EC50 is above 31.6 µM.

As for `O=C(O)CCc1ccc(NCc2ccc3c(c2)OCO3)cc1` [3-{4-[(2H-1,3-benzodioxol-5-ylmethyl)amino]phenyl}propanoic acid], under “25 °C”, the EC50 is above 31.6 µM.

`O=C(O)CCc1ccc(NCc2cccnc2)cc1` [3-{4-[(pyridin-3-ylmethyl)amino]phenyl}propanoic acid] displayed an EC50 (22 °C) above 31.6 µM.

For the compound `CN(C)Cc1ccc(CNc2ccc(CCC(=O)O)cc2)cc1` [3-{4-[({4-[(dimethylamino)methyl]phenyl}methyl)amino]phenyl}propanoic acid], the 50% effective concentration (EC50) (22 °C) is above 31.6 µM.

Turning to `O=C(O)CCc1ccc(NCc2ccc(C(=O)O)cc2)cc1` [4-({[4-(2-carboxyethyl)phenyl]amino}methyl)benzoic acid], the concentration giving a half-maximal response (EC50) (25 °C) is above 31.6 µM.
